# Measured values as given in patent US7915295B2, “Non-nucleotide reverse transcriptase inhibitors” (priority 2004, dated 2011).
# pEC50, pIC50: −log10 of the molar value.
# Legend:
# [1] = target: T1, HIV-1 reverse transcriptase L100I+K103N mutant (Human immunodeficiency virus type 1 group M subtype B, UniProt P03366, K702N/L699I); assay: HIV-1 reverse transcriptase SPA (scintillation proximity) assay with mutant RT; assay type: biochemical; details: K103N double escape mutant
# T1 construct: made in house; host or cells: E. coli BL21 (DE3)
# Procedure: Convenient reverse transcriptase assays use reverse transcriptase bearing key drug escape mutations prepared broadly as described in Unge et al Eur. J. Biochem. 269, 1670-1677 (2002).
# For example a K103N mutant is prepared using this methodology and the primers
# The L100I/K103 N mutant is prepared by mutation of L100 in the K103N enzyme:
# Mutations are done in the HIVRT DH10 clone cDNA cloned into the pET11d expression vector. The mutations are generated by amplification of the mutated DNA with the help of the enzyme Pfu. Cloning was then performed in E. coli TOP10 cells and expression of mutated enzyme was performed in E. coli BL21 (DE3) cells after induction with IPTG.
# The HIV-1 reverse transcriptase assay utilized a SPA (scintillation proximity assay) system relying on fluomicrospheres coated with the receptor molecule streptavidine (Flashplates, PerkinElmer Life Science) which is capable of binding radiolabelled ligands in the reaction solution. In the assay, a biotinylated primer (5′-GTC ATA GCT GTT TCC TG-3′) is pre-annealed with a DNA heterogeneous template (synthesized by GENSE) giving a sequence of 5′-CG UCUGGCAUUGCGAGCGGAUAA CM UUU CAC ACA GGA MC AGC UAU GAC-3′ in an RNase free environment. HIV-1 reverse transcriptase (such as L100I+K103N) catalyzed RNA-dependent DNA activity was measured in the presence of 50 mM Tris-HCl pH=8.0, 80 mM KCl, 10 mM MgCl2, 10 mM Dithiothreitol, 5 mg/ml BSA and 0.05% Nonidet P40 where the incorporation of tritium-labeled dGTP (Amersham, 35 Ci/mmol) and 11 uM of dNTP (dATP, dCTP and dTTP) was monitored at room temperature. The dGTP concentration was used at a Km value of 0.25 uM, 10 nM of RNA template was used and mutant RT (such as L100I+K103N) was used at 180 ng/ml in 100 ul reaction volume for 120 min reaction.
# Compounds of the invention were assayed for HIV activity against the problematic L100I, K103N mutant in an invitro assay as outlined below. For reference, the closest prior art compound, cis-1-(4,7-difluoro-1,1a,2,7b-tetrahydro-cyclopropa[c]chromen-1-yl)-3-(5-phenoxy-pyridin-2-yl)-urea, example 20 of WO 02/070516 as depicted above, was assayed in the same system.
# wild type HIV (HIVIIIB) = details: read-out: ED50 (the source's name); cited from earlier work
Compound,pIC50 [1],pEC50 (wild type HIV (HIVIIIB))
"O=C(Nc1ccc(Oc2ccccc2)cn1)N[C@@H]1[C@@H]2COc3c(F)ccc(F)c3[C@@H]21 (relative stereo) [Prior art, cis-1-(4,7-difluoro-1,1a,2,7b-tetrahydro-cyclopropa[c]chromen-1-yl)-3-(5-phenoxy-pyridin-2-yl)-urea, reference compound]",6.22,8.15
"NS(=O)(=O)c1ccc(Oc2ccc(NC(=O)N[C@@H]3[C@@H]4COc5c(F)ccc(F)c5[C@@H]43)nc2)cc1 [Example 1, N-[(1S,1aR,7bR)-4,7-difluoro-1,1a,2,7b-tetrahydrocyclopropa[c]chromen-1-yl]-N′-[5-(4-(sulfonamido)phenoxy)-2-pyridinyl]urea]",7.54,–
"CNC(=O)c1ccc(Oc2ccc(NC(=O)N[C@@H]3[C@@H]4COc5c(F)ccc(F)c5[C@@H]43)nc2)cc1 [Example 2, N-[(1S,1 aR,7bR)-4,7-difluoro-1,1a,2,7b-tetrahydrocyclopropa[c]chromen-1-yl]-N′-[5-(4-(N-methylcarboxyamido)phenoxy)-2-pyridinyl]urea]",7.59,–
"CS(=O)(=O)Nc1ccc(Oc2ccc(NC(=O)N[C@@H]3[C@@H]4COc5c(F)ccc(F)c5[C@@H]43)nc2)cc1 [Example 3, N-[(1S,1aR,7bR)-4,7-difluoro-1,1a,2,7b-tetrahydrocyclopropa[c]chromen-1-yl]-N′-[5-(4-(N-methylsulfonamido)phenoxy)-2-pyridinyl]urea]",7.22,–
"Nc1ccc(Oc2ccc(NC(=O)N[C@@H]3[C@@H]4COc5c(F)ccc(F)c5[C@@H]43)nc2)cc1 [Example 4, N-[(1S,1aR,7bR)-4,7-difluoro-1,1a,2,7b-tetrahydrocyclopropa[c]chromen-1-yl]-N′-[5-(4-aminophenoxy)-2-pyridinyl]urea]",7.15,–
"CS(=O)(=O)c1ccc(Oc2ccc(NC(=O)N[C@@H]3[C@@H]4COc5c(F)ccc(F)c5[C@@H]43)nc2)cc1 [Example 5, N-[(1S,1aR,7bR)-4,7-difluoro-1,1a,2,7b-tetrahydrocyclopropa[c]chromen-1-yl]-N′-[5-(4-(methylsulfon)phenoxy)-2-pyridinyl]urea]",7.40,–
"CNC(=O)c1ccc(Oc2ccc(NC(=O)N[C@@H]3[C@@H]4COc5c(F)ccc(F)c5[C@@H]43)nc2)cn1 [Example 8, 5-({6-[({[(1S,1aR,7bR)-4,7-difluoro-1,1a,2,7b-tetrahydrocyclopropa[c]chromen-1-yl]amino}carbonyl)amino]-3-pyridinyl}oxy)-N-methyl-2-pyridinecarboxamide]",7.15,–
"NC(=O)c1ccc(Oc2ccc(NC(=O)N[C@@H]3[C@@H]4COc5c(F)ccc(F)c5[C@@H]43)nc2)cc1 [Example 9, 4-({6-[({[(1S,1aR,7bR)-4,7-difluoro-1,1a,2,7b-tetrahydrocyclopropa[c]chromen-1-yl]amino}carbonyl)amino]-3-pyridinyl}oxy)benzamide]",7.55,–
"NC(=O)c1ccc(Oc2ccc(NC(=O)N[C@@H]3[C@@H]4COc5c(F)ccc(F)c5[C@@H]43)nc2)cn1 [Example 10, 5-({6-[({[(1S,1aR,7bR)-4,7-difluoro-1,1a,2,7b-tetrahydrocyclopropa[c]chromen-1-yl]amino}carbonyl)amino]-3-pyridinyl}oxy)-2-pyridinecarboxamide]",7.10,–
"NNC(=O)c1ccc(Oc2ccc(NC(=O)N[C@@H]3[C@H]4COc5c(F)ccc(F)c5[C@H]43)nc2)cc1 [Example 11, N-[(1S,1aS,7bS)-4,7-difluoro-1,1a,2,7b-tetrahydrocyclopropa[c]chromen-1-yl]-N′-{5-[4-(hydrazinocarbonyl)phenoxy]-2-pyridinyl}urea]",8.00,–
"O=C(Nc1ccc(Oc2ccc(C(=O)NC3CC3)cc2)cn1)N[C@@H]1[C@H]2COc3c(F)ccc(F)c3[C@H]21 [Example 12, 4-({6-[({[(1S,1aS,7bS)-4,7-difluoro-1,1a,2,7b-tetrahydrocyclopropa[c]chromen-1-yl]amino}carbonyl)amino]-3-pyridinyl}oxy)-N-cyclopropylbenzamide]",7.57,–
"CC(=O)Nc1ccc(Oc2ccc(NC(=O)N[C@@H]3[C@H]4COc5c(F)ccc(F)c5[C@H]43)nc2)cc1 [Example 13, N-[4-({6-[({[(1S,1aS,7bS)-4,7-difluoro-1,1a,2,7b-tetrahydrocyclopropa[c]chromen-1-yl]amino}carbonyl)amino]-3-pyridinyl}oxy)phenyl]acetamide]",7.40,–
"O=C(Nc1ccc(Oc2ccc(-n3cncn3)cc2)cn1)N[C@@H]1[C@@H]2COc3c(F)ccc(F)c3[C@@H]21 [Example 14, N-[(1S,1aR,7bR)-4,7-difluoro-1,1a,2,7b-tetrahydrocyclopropa[c]chromen-1-yl]-N′-{5-[4-(1H-1,2,4-triazol-1-yl)phenoxy]pyridin-2-yl}urea]",7.22,–
